Measurements reported in PubChem BioAssay AID1648 (Sanford-Burnham Center for Chemical Genomics, 2009).
Activity calls are given as the source filed them. No rule for the calls is given here.

These compounds were tested against Serine/threonine-protein kinase mTOR (Homo sapiens) (UniProt P42345) (assay: mTOR FRB domain ligand binding – biophysical, NMR (AID 1648)). Details: NMR binding to FRB domain, chemical shift.
Chain of Serine/threonine-protein kinase mTOR (Homo sapiens) (P42345 2015-2114): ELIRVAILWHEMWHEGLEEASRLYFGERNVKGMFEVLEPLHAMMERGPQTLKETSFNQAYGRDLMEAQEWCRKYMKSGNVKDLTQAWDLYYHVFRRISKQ

| SMILES | Kd |
| --- | --- |
| OC12CC3CC(CC(C3)C1)C2 | > 4 mM (inactive) |
| CC1(C)Cc2nc(N3CCOCC3)c(C#N)cc2CO1 | > 4 mM (inactive) |
| O=C(O)c1ccc(-n2cncn2)cc1 | > 4 mM (inactive) |
| CC(NC(=O)c1ccco1)C1CCCO1 (stereo not drawn) | > 4 mM (inactive) |
| S=c1nc(Cc2ccccc2)[nH][nH]1 | > 4 mM (inactive) |
| O=C(Nc1cccnc1)c1c(F)cccc1F | > 4 mM (inactive) |
| Cn1c(CNc2ccccc2)cc(=O)n(C)c1=O | > 4 mM (inactive) |
| O=C(O)CCC(=O)NCc1cccnc1 | > 4 mM (inactive) |
| O=C(CCc1ccc(O)cc1)c1c(O)cc(O)cc1O | > 4 mM (inactive) |
| O=C(O)/C=C1\NC(=O)c2ccccc21 | > 4 mM (inactive) |
| Cn1cnc2c(=O)[nH]cc([N+](=O)[O-])c21 | > 4 mM (inactive) |
| Cc1cc(NC(=O)c2cnn3cccnc23)no1 | > 4 mM (inactive) |
| O=C1NC(=S)NC(=O)C1=Cc1cccs1 | > 4 mM (inactive) |
| CSc1ncc(CO)n1Cc1ccccc1 | > 4 mM (inactive) |
| CC(=O)Nc1cccc(NC(=O)c2ccco2)c1 | > 4 mM (inactive) |
| Nc1cccc(S(N)(=O)=O)c1 | > 4 mM (inactive) |
| Cc1cc(C(=O)N2CCN(S(C)(=O)=O)CC2)cs1 | > 4 mM (inactive) |
| Cc1sc2nc(SC3CCOC3=O)[nH]c(=O)c2c1C (stereo not drawn) | > 4 mM (inactive) |
| O=C(O)/C=C/C=C/c1ccccc1 | > 4 mM (inactive) |
| O=C(O)CNC(=O)c1ccccc1 | > 4 mM (inactive) |
| Cc1cc(NC(=O)CS(=O)(=O)c2ccccc2)no1 | > 4 mM (inactive) |
| O=S1(=O)CCC(NCc2ccccc2)C1 (stereo not drawn) | > 4 mM (inactive) |
| Cc1onc(-c2ccccc2)c1CO | > 4 mM (inactive) |
| CN1CCN(C(=S)c2ccc(N(C)C)cc2)CC1 | > 4 mM (inactive) |
| O=Cc1c(N2CCOCC2)nc2ccccn2c1=O | > 4 mM (inactive) |

| SMILES | Kd |
| --- | --- |
| CCC(C)C(=O)c1c(O)c(C)c2oc3c(C)c(O)c(C(=O)C(C)CC)c(O)c3c2c1O (stereo not drawn) | > 4 mM (inactive) |
| Cc1nn(-c2ccccc2)nc1CN | > 4 mM (inactive) |
| Cc1cc(N2C(=O)CCC2=O)n(-c2ccccc2)n1 | > 4 mM (inactive) |
| Nc1[nH]c(=S)ncc1S(=O)(=O)c1ccccc1 | > 4 mM (inactive) |
| O=C(O)C1NCCc2ccccc21 (stereo not drawn) | > 4 mM (inactive) |
| COc1ncnc(N)c1[N+](=O)[O-] | > 4 mM (inactive) |
| CN(C)Cc1c(N)cccc1O | > 4 mM (inactive) |
| CC1CCC(N2CCN(c3ncccn3)CC2)CC1 (stereo not drawn) | > 4 mM (inactive) |
| COc1ccccc1/C=C/CN1CCOCC1 | > 4 mM (inactive) |
| O=C(O)c1ccc(CN2CCCCC2)o1 | > 4 mM (inactive) |
| Cc1ccc2cccc(OC(=O)N3CCCC3)c2n1 | > 4 mM (inactive) |
| CC(C)NC(=O)c1cc(-n2cnnc2)ccc1Cl | > 4 mM (inactive) |
| O=C1NC(=O)/C(=C\c2ccco2)S1 | > 4 mM (inactive) |
| COc1cnn(Cc2ccccc2)c(=O)c1Cl | > 4 mM (inactive) |
| O=C(O)c1ccc(-c2cnco2)cc1 | > 4 mM (inactive) |
| CCCn1c(C)cc(=O)[nH]c1=O | > 4 mM (inactive) |
| COc1ccccc1-c1n[nH]c(=O)o1 | > 4 mM (inactive) |
| Cc1ccc(/C=C2/C(=O)N=C(N)N2C)s1 | > 4 mM (inactive) |
| c1cnc(N2CCNCC2)nc1 | > 4 mM (inactive) |
| CC(C)(OC(=O)c1ccccc1)[C@@H]1Cc2cc3ccc(=O)oc3cc2O1 | > 4 mM (inactive) |
| CC(=O)OCC(=O)[C@@]1(O)CCC2C3CC[C@@H]4C[C@H](O)CC[C@]4(C)C3C(=O)C[C@@]21C (stereo partly drawn) | > 4 mM (inactive) |
| CC(C)=CCCC1(C)C=Cc2c(O)c3c(c(CC=C(C)C)c2O1)OC12C(=CCCC1C(C)(C)O[C@@]2(C/C=C(\C)C(=O)O)C(=O)O)C3=O (stereo partly drawn) | > 4 mM (inactive) |
| CC(=O)C1CCC2C3CCC4C[C@H](O)CCC4(C)C3C[C@H](O)C12C (stereo partly drawn) | > 4 mM (inactive) |
| NC(=O)CSc1nnc(-c2ccncc2)o1 | > 4 mM (inactive) |
| c1csc(-c2nn[nH]n2)c1 | > 4 mM (inactive) |

| SMILES | Kd |
| --- | --- |
| NCCc1cnc[nH]1 | > 4 mM (inactive) |
| O=C(Nc1cnccn1)c1ccncc1 | > 4 mM (inactive) |
| O=C1C=C(Nc2ccc(O)cc2)c2ccccc2C1=O | > 4 mM (inactive) |
| CC1C[C@H]2CC(=O)[C@H]3CCCN4CCC[C@H]2[C@]34C1 (stereo partly drawn) | > 4 mM (inactive) |
| Nc1nc2ncc(=O)[nH]c2c(=O)[nH]1 | > 4 mM (inactive) |
| COc1ccc(C2CC(=O)c3ccc(OC)cc3O2)cc1 (stereo not drawn) | > 4 mM (inactive) |
| CCN1C[C@@]2(COC)C3[C@@H](OC)[C@H]4[C@@H]1[C@]3(C(OC)C[C@H]2O)C1C[C@@]2(O)[C@H](OC(=O)c3ccccc3)C1[C@]4(OC(C)=O)[C@@H](O)[C@@H]2OC (stereo partly drawn) | > 4 mM (inactive) |
| CNC(=O)C(=O)Nc1cccc(Cl)c1 | > 4 mM (inactive) |
| CN(C)c1ccc(/C=C2/NC(=S)NC2=O)cc1 | > 4 mM (inactive) |
| NC(=O)C1CCN(c2ncnc(N)c2[N+](=O)[O-])CC1 | > 4 mM (inactive) |
| Cc1cc(C)n2nc(N)nc2n1 | > 4 mM (inactive) |
| CN1C(=O)c2ccc(C(=O)NCc3ccccc3)cc2C1=O | > 4 mM (inactive) |
| COc1ccc2c(CC(=O)O)coc2c1 | > 4 mM (inactive) |
| COc1cccc(NC(=O)c2nc3ncccn3n2)c1 | > 4 mM (inactive) |
| O=C(NC(=S)NC1CCS(=O)(=O)C1)c1ccccc1 (stereo not drawn) | > 4 mM (inactive) |
| O=C(O)CCn1c(=O)oc2ccccc21 | > 4 mM (inactive) |
| CCOC(=O)c1c(-c2ccncc2)csc1N | > 4 mM (inactive) |
| Cn1c2ccccc2n2c(=S)[nH]nc12 | > 4 mM (inactive) |
| Cc1cc(=O)[nH]c(N2CCN(Cc3ccccc3)CC2)n1 | > 4 mM (inactive) |
| CCOC(=O)c1c(C)cc(OC)cc1O | > 4 mM (inactive) |
| Cc1nc(NCc2ccco2)nc2c1C(=O)CC(C)C2 (stereo not drawn) | > 4 mM (inactive) |
| COc1ccc2[nH]cc(CCN(C)C)c2c1 | > 4 mM (inactive) |
| O=C(O)C1CSC(c2ccco2)N1 (stereo not drawn) | > 4 mM (inactive) |
| Nc1nc(-c2ccc(O)cc2)cs1 | > 4 mM (inactive) |
| O=C(c1ccc(Cl)s1)N1CCOCC1 | > 4 mM (inactive) |

| SMILES | Kd |
| --- | --- |
| CCn1ccc(C(=O)Nc2nccs2)n1 | > 4 mM (inactive) |
| CC(=O)Nc1ccncc1NC(C)=O | > 4 mM (inactive) |
| COc1c2c(c(CC=C(C)C)c3oc(=O)c(-c4ccc(O)cc4)c(O)c13)OC(C)(C)C=C2 | > 4 mM (inactive) |
| Cc1[nH]c(=O)[nH]c(=O)c1N1CCOCC1 | > 4 mM (inactive) |
| COc1ccc(/C=C2/SC(N)=NC2=O)c(OC)c1 | > 4 mM (inactive) |
| O=c1[nH]cc(COCc2ccccc2)c(=O)[nH]1 | > 4 mM (inactive) |
| O=C1NC(=S)NC(=O)C1=Cc1ccco1 | > 4 mM (inactive) |
| Nc1ccc(F)cc1F | > 4 mM (inactive) |
| O=C(Nc1ccon1)c1ccc2c(c1)OCO2 | > 4 mM (inactive) |
| CC(C)C(=O)NC(=S)N1CCOCC1 | > 4 mM (inactive) |
| Cn1c([O-])c([N+](C)(C)C)c(=O)n(C)c1=O | > 4 mM (inactive) |
| CN(c1ccccc1C(=O)N1CCOCC1)S(C)(=O)=O | > 4 mM (inactive) |
| O=C1N=c2ccccc2=C1c1sc(=S)[nH]c1O | > 4 mM (inactive) |
| O=P(c1ccccc1)(c1ccccc1)C1CCOCC1 | > 4 mM (inactive) |
| Cc1sc2nc(C)n(NC(N)=O)c(=O)c2c1C | > 4 mM (inactive) |
| Cc1sc2nc(SCC(=O)N(C)C)[nH]c(=O)c2c1C | > 4 mM (inactive) |
| COc1ccc(-c2nnc(-c3ccc(N)cc3)o2)cc1 | > 4 mM (inactive) |
| COc1ccccc1NC(=O)c1snnc1C | > 4 mM (inactive) |
| CN1C2CC(OC(=O)[C@H](CO)c3ccccc3)C[C@H]1[C@H]1OC21 (stereo partly drawn) | > 4 mM (inactive) |
| O=C(Nc1ccon1)c1ccc(Br)o1 | > 4 mM (inactive) |
| Clc1ccc(SCCn2cncn2)cc1 | > 4 mM (inactive) |
| Nc1nnc(SCc2ccccc2Cl)s1 | > 4 mM (inactive) |
| Cc1noc(C)c1C(=O)N1CCN(c2ncccn2)CC1 | > 4 mM (inactive) |
| CC1CCCN(C/C(O)=C(\C#N)c2nc3ccccc3[nH]2)C1 (stereo not drawn) | > 4 mM (inactive) |
| Cc1nn(C)c2sc(C(=O)O)cc12 | > 4 mM (inactive) |

| SMILES | Kd |
| --- | --- |
| COc1ccccc1/C=C\C(=O)O | > 4 mM (inactive) |
| C/C1=C/CC(C)(C)/C=C/C/C(C)=C/CC1 | > 4 mM (inactive) |
| CN(C)C(=O)Nc1ccc2c(c1)nnn2C | > 4 mM (inactive) |
| CSc1nnc(CN2CCSCC2)n1C | > 4 mM (inactive) |
| O=C(CSc1nnc2ccccn12)N1CCOCC1 | > 4 mM (inactive) |
| CCOC(=O)c1cnc2n(c1=O)CCS2 | > 4 mM (inactive) |
| CNc1ccccc1C(=O)O | > 4 mM (inactive) |
| Nc1ccc2c(c1)S(=O)(=O)C=C2 | > 4 mM (inactive) |
| CC(=O)c1c(O)cc(O)cc1O | > 4 mM (inactive) |
| O=C1c2ccncc2C(=O)N1CO | > 4 mM (inactive) |
| CC(=O)Nc1ccc(S(N)(=O)=O)cc1 | > 4 mM (inactive) |
| CCN(CC)S(=O)(=O)c1ccc(F)cc1 | > 4 mM (inactive) |
| Cc1ccnc(NS(=O)(=O)c2cccs2)c1 | > 4 mM (inactive) |
| Cc1sc2nc3n(c(=O)c2c1C)CCCS3 | > 4 mM (inactive) |
| CCCS(=O)(=O)N1CCN(c2ccccn2)CC1 | > 4 mM (inactive) |
| CNC(=O)Nc1ccc(C(=O)NC)cc1 | > 4 mM (inactive) |
| Cn1ccc(NC(=S)Nc2cccc([N+](=O)[O-])c2)n1 | > 4 mM (inactive) |
| c1ccc(-c2csc3ncn4nnnc4c23)cc1 | > 4 mM (inactive) |
| COc1ccc(-c2cc(=O)c3c(OC)c(OC)c(OC)c(OC)c3o2)cc1 | > 4 mM (inactive) |
| CC(=O)Nc1cnn(Cc2ccc(Br)cc2)c1 | > 4 mM (inactive) |
| O=c1[nH]c(=O)c2[nH]cnc2[nH]1 | > 4 mM (inactive) |
| CC(=O)Nc1nnc(-c2ccccc2)o1 | > 4 mM (inactive) |
| Cc1nc2cc(NC(=O)Nc3nccs3)ccc2n1C | > 4 mM (inactive) |
